Experimental data taken from US5219866A, “Octadecyl-[2-(N-methylpiperidino)-ethyl]-phosphate and a process for its preparation” (Asta Medica AG, priority 1991, dated 1993).
≈ marks a conversion by molar mass, not a printed value.

Assays:
[1] = system: human KB tumor cell line which is transplanted in nude mice; experiment: Growth inhibition index WHI in vivo, human KB tumour cell line transplanted into nude mice; design: species or system human (KB tumour); nude mice (host); conditions: for Growth inhibition index WHI in % in vivo/humane KB tumour cell line transplanted into nude: 14th day after treatment related to the value on the day of application, WHI >100% = tumors became smaller
Procedure: Growth inhibition index WHI in % in vivo/humane
Substance KB tumour cell line transplanted into nude
The growth inhibition index WHI is determined in the human KB tumor cell line which is transplanted in nude mice. The growth inhibition index is defined as follows: [formula] of the treated group or in the control group on the 14th day after treatment related to the value on the day of application. […] In other words, the higher the WHI, the stronger the antitumor efficacy of a test substance.
(§1) The compounds of the invention display a good antineoplastic effect in the KB tumor (human carcinoma of the buccal cavity, transplanted subcutaneously to nude mice) and in autochthonous, chemically-induced DMBA-breast gland cancer in the rat.

[2] = system: Human KB tumour cell line; experiment: EC90, growth inhibition of human KB tumour cell line in vitro; assay type: cell-based; conditions: concentration which inhibits growth of cancer cells in vitro by 90%, read-out: ECqo in μg/ml Human KB tumour cell line in vitro
Procedure: Human KB tumour cell line in
The EC90 is determined in vitro in the same cell line. The EC90 is the concentration of substance having an antitumor effect in μg/ml which inhibits the growth of cancer cells in vitro by 90% in comparison to a control experiment without addition of the antitumor-acting substance.

phospholipase-A2 = phospholipase-A2 inhibition; assay type: biochemical
[3] = system: blood platelet aggregation; experiment: inhibition of blood platelet aggregation; assay type: cell-based
lipoxygenase = lipoxygenase inhibition; assay type: biochemical
DMBA-breast gland cancer = experiment: autochthonous, chemically-induced DMBA-breast gland cancer in the rat; assay type: in vivo; conditions: oral, 21.5 mg/kg body weight daily, 14-day treatment
Excerpt: as §1

## CCCCCCCCCCCCCCCCCCOP(=O)([O-])OCC[N+]1(C)CCCCCC1 [D20918]
[1]
  Growth inhibition index WHI in % in vivo/humane KB tumour cell line transplanted into nude: 0%
[2]
  IC90: 1 µg/mL (≈ 2.04 µM)

## CCCCCCCCCCCCCCCCCCOP(=O)([O-])OCC[N+]1(C)CCCCC1 [D 20133, Octadecyl-[2-(N-methylpiperidino)-ethyl]-phosphate]
phospholipase-A2
  phospholipase-A2-inhibiting effect: phospholipase-A2 -inhibiting
[3]
  inhibition of blood platelet aggregation: causes inhibition of blood platelet aggregation
lipoxygenase
  lipoxygenase-inhibiting effect: lipoxygenase-inhibiting effect
[1]; 2×316 mg/kg body weight, given at intervals of one week
  regression of the KB tumors: achieved a regression of the KB tumors
[1]
  Growth inhibition index WHI in % in vivo/humane KB tumour cell line transplanted into nude: 121%
[2]
  IC90: 0.3 µg/mL (≈ 0.631 µM)
DMBA-breast gland cancer
  regression of DMBA tumors weighing 5 g: regressed to the borderline of palpability

## CCCCCCCCCCCCCCCCCCOP(=O)([O-])OCC[n+]1ccccc1 [D 19862]
[1]
  Growth inhibition index WHI in % in vivo/humane KB tumour cell line transplanted into nude: 0%
[2]
  IC90: > 1 µg/mL

## CCCCCCCCCCCCCCCCCCOP(=O)([O-])OCC[N+]1(C)CCOCC1 [D 20680]
[1]
  Growth inhibition index WHI in % in vivo/humane KB tumour cell line transplanted into nude: 0%
[2]
  IC90: > 10 µg/mL

## CCCCCCCCCCCCCCCCCCOP(=O)([O-])OCC[N+](C)(C)C [D 19391]
[1]
  Growth inhibition index WHI in % in vivo/humane KB tumour cell line transplanted into nude: 11%
[2]
  IC90: 0.31 µg/mL (≈ 0.712 µM)

## CCCCCCCCCCCCCCCCCCOP(=O)([O-])OCC[N+]1(CC)CCCCC1 [D 20931]
[1]
  Growth inhibition index WHI in % in vivo/humane KB tumour cell line transplanted into nude: 13%
[2]
  IC90: 1 µg/mL (≈ 2.04 µM)
